For the assay, the target named is Protein farnesyltransferase subunit beta/geranylgeranyltransferase type-1 subunit alpha (Mus musculus, UniProt Q61239+Q8K2I1). Put plainly: Inhibition of H-Ras transformed NIH-3T3-cell proliferation.

In general, EC50 refers to the concentration needed to bring the measured effect to its halfway point.

In the case of `CC(=O)c1ccc(-c2cc(C#N)ccc2COCc2cncn2Cc2ccc(C#N)cc2)cc1` [4'-acetyl-6-(((1-(4-cyanobenzyl)-1H-imidazol-5-yl)methoxy)methyl)biphenyl-3-carbonitrile], the concentration for a half-maximal effect (EC50) is 77 nM.
`N#Cc1ccc(Cn2cncc2COc2ccc(C#N)c(-c3cccc4ccccc34)c2)cc1` [4-((1-(4-cyanobenzyl)-1H-imidazol-5-yl)methoxy)-2-(naphthalen-1-yl)benzonitrile] showed an EC50 of 1.2 nM. This EC50 is about 64-fold lower than that of the compound before.
The value for `N#Cc1ccc(COCc2cncn2Cc2ccc(C#N)cc2-c2cccc3ccccc23)cc1` [4-[5-(4-cyano-benzyloxymethyl)-imidazol-1-ylmethyl]-3-naphthalen-1-yl-benzonitrile] was 461 nM; that for `CCOc1cccc(-c2cc(C#N)ccc2COCc2cncn2Cc2ccc(C#N)nc2)c1` [5-((5-(((5-cyano-3'-ethoxybiphenyl-2-yl)methoxy)methyl)-1H-imidazol-1-yl)methyl)picolinonitrile] was 17 nM; that for `N#Cc1ccc(COCc2cncn2Cc2ccc(C#N)nc2)c(-c2ccc3c(c2)OCO3)c1` [5-[5-(2-Benzo[1,3]dioxol-5-yl-4-cyano-benzyloxymethyl)-imidazol-1-ylmethyl]-pyridine-2-carbonitrile] was 16 nM.
The value for `N#Cc1ccc(Cn2cncc2COCc2ccc(C#N)cc2-c2ccc3c(c2)OCO3)nc1` [6-((5-((2-(benzo[d][1,3]dioxol-5-yl)-4-cyanobenzyloxy)methyl)-1H-imidazol-1-yl)methyl)nicotinonitrile] was 29 nM; that for `CCOc1cccc(-c2cc(C#N)ccc2COCc2cncn2Cc2ccc(Cl)cc2)c1` [6-(((1-(4-chlorobenzyl)-1H-imidazol-5-yl)methoxy)methyl)-3'-ethoxybiphenyl-3-carbonitrile] was 34 nM.
The value for `N#Cc1ccc(Cn2cncc2COCc2ccc(C#N)cc2-c2ccc(C(F)(F)F)cc2)cc1` [6-(((1-(4-cyanobenzyl)-1H-imidazol-5-yl)methoxy)methyl)-4'-(trifluoromethyl)biphenyl-3-carbonitrile] was 1.6 nM; that for `N#Cc1ccc(OCc2cncn2Cc2ccc(C#N)c(-c3cccc4ccccc34)c2)nc1` [6-[3-(4-Cyano-3-naphthalen-1-yl-benzyl)-3H-imidazol-4-ylmethoxy]-nicotinonitrile] was 60 nM.
Take `N#Cc1ccc(Cn2cncc2COCc2ccc(C#N)cc2-c2cccc(Cl)c2)nc1` [6-[5-(3''-Chloro-5-cyano-biphenyl-2-ylmethoxymethyl)-imidazol-1-ylmethyl]-nicotinonitrile]: it took 155 nM to reach a half-maximal effect (EC50).

The record behind these values is BindingDB's records for doi:10.1016/j.bmcl.2004.08.011 (Abbott Laboratories, 2004).
